Measurements from patent publication US20230150978A1, “QUINAZOLINONE DERIVATIVES AND USES THEREOF FOR TREATING A CANCER” (ENYO PHARMA, priority 2020, published 2023).
Read-outs that look alike come from different tables or passages of the source.

Legend:
[1] = test system: Calreticulin; assay: Calreticulin release (ER to plasma membrane translocation) screen, Nano-Glo HiBiT extracellular detection; format: cell-based; conditions: extracellular luminescence, read-out: CalR EC50
Procedure: (§1) Construction of pBiT3.1-Calreticulin Plasmid Calreticulin derived from pCMV6-AC plasmid (ref. SC320287, Origene) was amplified by PCR using the following set of primers: Seq ID No 3: forward, 5′-[…]-3′; Seq ID No 4: reverse, 5′-[…]-3′. The PCR fragment was subsequently digested by EcoRI and XhoI (R3101S and R0146S respectively, New England Biolabs) and inserted between the EcoRI and XhoI sites in the plasmid pBiT3.1-C(ref. N237A, Promega). The resulting plasmid (pBiT3.1-Calreticulin) was grown in NEB10-beta competent E. coli (ref. C3019I, New England Biolabs) and purified using the NucleoBond Xtra Midi Kit (ref. 740410, Macherey-Nagel).
Construction of Calreticulin Reporter Cell Line
(§2) pBiT3.1-Calreticulin was transfected in MDA-MB-231 cells (ref. ATCC HTB-2) using Lipofectamine 2000 reagent (ref. 11668, Invitrogen). Transfected cells were selected for blasticidin resistance (15 μg/ml, ref. Al 113903 Gibco) in medium containing DMEM 1× (ref. 1995065, Gibco) with 1% penicillin and streptomycin, and 10% fetal bovine serum.
Screen for Calreticulin-ER to Plasma Membrane Translocating Drugs
(§3) MDA-MB-231 cells stably expressing Calreticulin-HiBiT (10^4 cells/well) were seeded into white 96-well plates (ref.3917, Corning) and allowed to recover for 24h. […] Mitoxantrone dihydrochloride (ref. M6545, Sigma-Aldrich) was used as a positive control. Extracellular translocation of Calreticulin was measured using the Nano-Glo HiBiT extracellular detection system (ref. N2422, Promega). Nano-Glo HiBiT Extracellular Reagent was prepared in advance, added to the well and incubated 10 min.
Luminescence of the extracellular Calreticulin-HiBiT was quantified using the Spark 20M spectrofluorimeter (TECAN).

[2] = test system: HMGB1; assay: HMGB1 release screen, Nano-Glo HiBiT extracellular detection; format: cell-based; conditions: extracellular luminescence
Procedure: Construction of pBiT3.1-HMGB1 Plasmid
as §1, with “HMGB1” for “Construction of pBiT3.1-Calreticulin Plasmid Calreticulin”, “pCMV6-AC-GFP” for “pCMV6-AC”, “RG205918,” for “SC320287,”, “1:” for “3:”, “2:” for “4:”, “(pBiT3.1-HMGB1)” for “(pBiT3.1-Calreticulin)”
Construction of HMGB1 Reporter Cell Line
as §2, with “pBiT3.1-HMGB1” for “pBiT3.1-Calreticulin”
Screen for HMGB1-Releasing Drugs
as §3, with “HMGB1-HiBiT” for “Calreticulin-HiBiT”, “HMGB1” for “Calreticulin”, “min. Luminescence of the extracellular HMGB1-HiBiT was quantified using the Spark 20M spectrofluorimeter (TECAN)” for “min.”

[3] = Homo sapiens, MDA-MB-231, MDA-MB-231 cells stably expressing Calreticulin-HiBiT
[4] = Homo sapiens, MDA-MB-231, MDA-MB-231 cells stably expressing HMGB1-HiBiT

Row | Compound | EC50 [1, 3] [µM] | EC50 [2, 4] [µM] | melting point [°C] | EC50 ([1]; MDA-MB-231 cells stably expressing Calreticulin-HiBiT) [µM] | EC50 ([2]; MDA-MB-231 cells stably expressing HMGB1-HiBiT) [µM]
1 | COc1ccc2nc(CN3CCCc4cccc(F)c43)[nH]c(=O)c2c1 [Ex. #11, 2-[(8-fluoro-3,4-dihydro-2H-quinolin-1-yl)methyl]-6-methoxy-3H-quinazolin-4-one] | 0.102 | 0.109 | 222 to 236 | – | –
2 | COc1ccc2nc(CN3CC(C(C)C)c4ccccc43)[nH]c(=O)c2c1 (centres unmarked) [Ex. #6, 2-[(3-isopropylindolin-1-yl)methyl]-6-methoxy-3H-quinazolin-4-one] | 0.254 | 0.217 | 192 to 208 | – | –
3 | COc1ccc2nc(CN3CCc4c(cccc4C(F)(F)F)C3)[nH]c(=O)c2c1 [Ex. #125, 6-methoxy-2-[[5-(trifluoromethyl)-3,4-dihydro-1H-isoquinolin-2-yl]methyl]-3H-quinazolin-4-one] | 9.76 | 15.9 | 196 to 206 | – | –
4 | CC1(C)CN(Cc2nc3ccc(Cl)cc3c(=O)[nH]2)c2ccccc21 [Ex. #40, 6-chloro-2-[(3,3-dimethylindolin-1-yl)methyl]-3H-quinazolin-4-one] | 0.941 | 1.26 | 163 to 176 | – | –
5 | COc1ccc2nc(CN3CCCc4cccc(OC)c43)[nH]c(=O)c2c1 [Ex. #13, 6-methoxy-2-[(8-methoxy-3,4-dihydro-2H-quinolin-1-yl)methyl]-3H-quinazolin-4-one] | 1.14 | 0.752 | 169 to 183 | – | –
6 | COc1cccc2c1CN(Cc1nc3ccc(Cl)cc3c(=O)[nH]1)CC2 [Ex. #130, 6-chloro-2-[(8-methoxy-3,4-dihydro-1H-isoquinolin-2-yl)methyl]-3H-quinazolin-4-one] | 9.06 | 15.1 | 195 to 203 | – | –
7 | COc1cccc2c1N(Cc1nc3ccc(Cl)cc3c(=O)[nH]1)CCC2 [Ex. #54, 6-chloro-2-[(8-methoxy-3,4-dihydro-2H-quinolin-1-yl)methyl]-3H-quinazolin-4-one] | 1.76 | 3.06 | 183 to 194 | – | –
8 | COc1ccc2nc(CN3CCc4c(F)cccc43)[nH]c(=O)c2c1 [Ex. #126, 2-[(4-fluoroindolin-1-yl)methyl]-6-methoxy-3H-quinazolin-4-one] | 8.06 | – | 222 to 232 | – | –
9 | COc1ccc2c(c1)CCN2Cc1nc2ccc(Cl)cc2c(=O)[nH]1 [Ex. #144, 6-chloro-2-((5-methoxyindolin-1-yl)methyl)quinazolin-4(3H)-one] | 9.71 | 14.6 | – | – | –
10 | COCCOc1ccc2nc(CN3CC(C)(C)c4ccccc43)[nH]c(=O)c2c1 [Ex. #97, 2-[(3,3-dimethylindolin-1-yl)methyl]-6-(2-methoxyethoxy)-3H-quinazolin-4-one] | 7.36 | 7.56 | – | – | –
11 | COc1ccc2nc(CN3CCCN(C)c4ccccc43)[nH]c(=O)c2c1 [Ex. 23, 6-methoxy-2-[(1-methyl-3,4-dihydro-2H-1,5-benzodiazepin-5-yl)methyl]-3H-quinazolin-4-one] | 1.96 | 2 | – | – | –
12 | COc1ccc2nc(CN3CCOc4cccc(OC)c43)[nH]c(=O)c2c1 [Ex. #14, 6-methoxy-2-[(5-methoxy-2,3-dihydro-1,4-benzoxazin-4-yl)methyl]-3H-quinazolin-4-one] | 1.96 | 2.16 | – | – | –
13 | COc1cc2c(=O)[nH]c(CN3CC(C)(C)c4ccccc43)nc2cc1Cl [Ex. #93, 7-chloro-2-[(3,3-dimethylindolin-1-yl)methyl]-6-methoxy-3H-quinazolin-4-one] | 0.0975 | 0.15 | – | – | –
14 | COc1cc2nc(CN3CCc4ccccc43)[nH]c(=O)c2cc1OC [Ex. #83, 2-(indolin-1-ylmethyl)-6,7-dimethoxy-3H-quinazolin-4-one] | 1.61 | 1.44 | – | – | –
15 | COC1CN(c2ccc3nc(CN4CCc5ccccc54)[nH]c(=O)c3c2)C1 [Ex. #101, 2-(indolin-1-ylmethyl)-6-(3-methoxyazetidin-1-yl)-3H-quinazolin-4-one] | 10 | 10.2 | – | – | –
16 | COc1ccc2nc(CN3CCc4cccc(OC)c4C3)[nH]c(=O)c2c1 [Ex. #19, 6-methoxy-2-[(8-methoxy-3,4-dihydro-1H-isoquinolin-2-yl)methyl]-3H-quinazolin-4-one] | 7.36 | 10.2 | – | – | –
17 | CC(C)Oc1ccc2nc(CN3CCc4ccccc43)[nH]c(=O)c2c1 [Ex. #87, 2-(indolin-1-ylmethyl)-6-isopropoxy-3H-quinazolin-4-one] | 2.16 | 3.96 | – | – | –
18 | COc1ccc2nc(CN3CCCc4cccc(Cl)c43)[nH]c(=O)c2c1 [Ex. #12, 2-[(8-chloro-3,4-dihydro-2H-quinolin-1-yl)methyl]-6-methoxy-3H-quinazolin-4-one] | 0.522 | 0.751 | – | – | –
19 | O=c1[nH]c(CN2CCc3ccccc32)nc2ccc(N3CCC(CO)C3)cc12 (centres unmarked) [Ex. #104, 6-[3-(hydroxymethyl)pyrrolidin-1-yl]-2-(indolin-1-ylmethyl)-3H-quinazolin-4-one] | 2.16 | 3.46 | – | – | –
20 | COc1ccc2nc(CN3CC(C)c4ccccc43)[nH]c(=O)c2c1 (single isomer, unassigned) [Ex. #4, 6-methoxy-2-[(3-methylindolin-1-yl)methyl]-3H-quinazolin-4-one] | – | – | – | 0.172 | 0.207
21 | COc1ccc2c(c1)N(Cc1nc3ccc(Cl)cc3c(=O)[nH]1)CCC2 [Ex. #55, 6-chloro-2-[(7-methoxy-3,4-dihydro-2H-quinolin-1-yl)methyl]-3H-quinazolin-4-one] | 11.3 | 10.8 | – | – | –
22 | O=c1[nH]c(CN2CCc3ccccc32)nc2cc(F)ccc12 [Ex. #138, 7-fluoro-2-(indolin-1-ylmethyl)-3H-quinazolin-4-one] | 12 | 14.5 | – | – | –
23 | Cc1cccc2c1CCN2Cc1nc2ccc(Cl)cc2c(=O)[nH]1 [Ex. #43, 6-chloro-2-[(4-methylindolin-1-yl)methyl]-3H-quinazolin-4-one] | 1.07 | 1.15 | – | – | –
24 | COc1ccc2nc(CN3CCCc4ccccc43)[nH]c(=O)c2c1 [Ex. #15, 2-(3,4-dihydro-2H-quinolin-1-ylmethyl)-6-methoxy-3H-quinazolin-4-one] | 1.06 | 3.34 | – | – | –
25 | O=c1[nH]c(CN2CCc3ccccc32)nc2ccc(N3CCC(O)C3)cc12 (centres unmarked) [Ex. #105, 6-(3-hydroxypyrrolidin-1-yl)-2-(indolin-1-ylmethyl)-3H-quinazolin-4-one] | 9.16 | 11.7 | – | – | –
26 | O=c1[nH]c(CN2CCc3cc(F)ccc32)nc2ccc(Cl)cc12 [Ex. #47, 6-chloro-2-[(5-fluoroindolin-1-yl)methyl]-3H-quinazolin-4-one] | 2.18 | 3.98 | – | – | –
27 | COc1cccc2c1CCCN2Cc1nc2ccc(Cl)cc2c(=O)[nH]1 [Ex. #52, 6-chloro-2-[(5-methoxy-3,4-dihydro-2H-quinolin-1-yl)methyl]-3H-quinazolin-4-one] | 1.26 | 1.36 | – | – | –
28 | O=c1[nH]c(CN2CCc3ccccc32)nc2ccc(N3CCC3)cc12 [Ex. #100, 6-(azetidin-1-yl)-2-(indolin-1-ylmethyl)-3H-quinazolin-4-one] | 0.23 | 0.25 | – | – | –
29 | COc1ccc2nc(CN3CCc4c(cccc4NS(C)(=O)=O)C3)[nH]c(=O)c2c1 [Ex. #21, N-[2-[(6-methoxy-4-oxo-3H-quinazolin-2-yl)methyl]-3,4-dihydro-1H-isoquinolin-5-yl]methanesulfonamide] | 3.96 | 11.2 | – | – | –
